According to article PMC12668304, “A Triple Threat Against Ovarian Cancer: Os(II)‐Pt(IV)‐Ceritinib Conjugates for Photodynamic Therapy, Chemotherapy, and Immunogenic Cell Death Induction” (Angewandte Chemie (International Ed. in English), 2025):

System: MCA205 cells co-incubated with RAW 264.7 macrophages
Assay: Phagocytosis of treated cancer cells by macrophages (flow cytometry, confocal microscopy)
Format: cell-based, mouse
Conditions: IC50,48 h concentration, 3 h co-incubation
Method: All compounds were incubated for 4 h with the cells, which were either irradiated at 740 nm (1 h) or kept in the dark. 16 h post‐treatment, cancer cells were stained with CellMask Green, while RAW 264.7 macrophages were stained with CellMask DeepRed. Co‐culture was performed at a 1 : 2 (macrophage : tumour cells) ratio for 3 h. Thereafter, the phagocytosis was evaluated by flow cytometry and confocal microscopy.
To quantify this phagocytic response, a flow cytometry assay was performed, see Figure 12. MCA205 cells were incubated with Os‐Pt‐Cer for 4 h, after which half of the samples were either kept in the dark (−L) or irradiated (+L) for 1 h (740 nm). After an additional 16 h, the cells were co‐incubated with RAW 264.7 macrophages for 3 h. […] Flow cytometry analysis was used to quantify phagocytosis, identifying double‐positive (green–red) events as phagocytic macrophages. […]
analyzed using an ATP assay kit according to the manufacturer’s instructions. Luminescence was measured on a SPARK multimode reader (Tecan). […]
MCA205 and A2780 cells were seeded on µ-slide 8 well (Ibidi) (100 µl/well) and left for 24 h to attach to the bottom at a density of 2 x 10^4 cells/well and incubated overnight. […] 30 minutes before starting confocal fluorescence microscopy analysis, Hoechst was added at a final concentration of 1 µg/mL. […] Images were analysed with LAS X Film FCS software. […]

| Compound | phagocytosis, double‐positive (green–red) events (upper right quadrant) (+L (740 nm, 1 h)) [%] | phagocytosis, double‐positive (green–red) events (upper right quadrant) (light condition not given) [%] |
| --- | --- | --- |
| C=Cc1c(C)c2cc3nc(c(CC(=O)O)c4[nH]c(cc5nc(cc1[nH]2)C(C)=C5CC)c(C)c4C(=O)O)[C@@H](CCC(=O)O)[C@@H]3C [Ce6, Chlorin e6] | 7.4 | – |
| O=C1[O][Pt]2([NH][C@@H]3CCCC[C@H]3[NH]2)[O]C1=O [Oxaliplatin] | – | 6.0 |
